In paper PMC8145986, “In Vitro Enzymatic and Kinetic Studies, and In Silico Drug-Receptor Interactions, and Drug-Like Profiling of the 5-Styrylbenzamide Derivatives as Potential Cholinesterase and β-Secretase Inhibitors with Antioxidant Properties” (Antioxidants, 2021):

What was measured:
[1] = target: T1, AChE (Homo sapiens, UniProt P22303); experiment: Enzyme kinetic study against AChE (Lineweaver-Burk and Dixon plots); format: biochemical
T1 construct: purchased BioLegend (via Biocom Africa (Pty) Ltd.)
Method: The AChE and BChE enzyme kinetic studies were performed in triplicate in a 96-well plate following a procedure described in our previous study. Varying concentrations of 2a or 3c (0, 2.5, 3.5, and 5 μM) and AChI or BChI (0.1, 0.5, 2.5, and 5 mM) were used for the kinetic assays. The absorbances were measured after every 1 s for 10 s at a wavelength of 412 nm using a microplate spectrophotometer reader. The Lineweaver–Burk plots (plot of the inverse of velocity (1/v) against the inverse of the substrate concentration (1/[S])) were constructed.

[2] = target: T2, β-secretase (Homo sapiens, UniProt P56817); experiment: β-Secretase (BACE-1) inhibition assay; format: biochemical; details: mean ± SD of three independent experiments
T2 construct: purchased Thermo Fisher Scientific Corporation; host or cells: baculovirus-expressed
Method: The β-secretase inhibitory activities of the test compounds were assayed in triplicates in 96-well plates using a recombinant baculovirus-expressed β-secretase and a specific substrate (Rh-[…]-Quencher), according to the manufacturer’s (Thermo Fisher Scientific Corporation, Johannesburg, Gauteng, South Africa) instructions, as described in our previous study. […] To each well, 2.0 μL human recombinant β-secretase (1.0 U/mL) was added to start the reaction and the reaction mixture was incubated for 60 min at room temperature. […] The IC50 and standard deviation values of both the test compounds and reference standard were calculated using the Graph Pad Prism.

[3] = DPPH radical scavenging assay; details: read-out: IC50 (SD) DPPH
Method: The antioxidant activities of the test compounds against ascorbic acid (Sigma Aldrich, Saint Louis, MO, USA) as a positive control were evaluated using a 2,2-diphenyl-1-picrylhydrazyl (DPPH) radical scavenging assay developed by Zhu et al., as described in our previous study. Duplicate solutions (20 μL) of the test compounds and ascorbic acid in DMSO (final concentrations: 5, 10, 25, 50, and 100 μM) were added into each designated well of a 96-well plate. A solution of DPPH (0.20 mM) (20 μL) in methanol was added to each well, and the 96-well plate was wrapped with aluminium foil and incubated in the dark for 45 min. Five absorbance readings were recorded at 512 nm using a Varioskan flash microplate spectrophotometer reader. The average values obtained from the absorbance readings were used to determine the IC50 and standard deviation values.

[4] = Metal chelation study by UV-vis spectrometry; format: physicochemical; details: room temperature
Method: The metal chelating ability of compounds 2a and 3b toward Cu^2+ and Zn^2+ was evaluated by ultraviolet–visible (UV–Vis) spectrometry. A solution of the test compound in methanol (30 μM, final concentration) alone or in the presence of CuCl2 or ZnCl2 (30 μM, final concentration) was stirred at RT for 30 min. The absorption spectra were recorded at room temperature on a PerkinElmer UV/Vis spectrometer (Perkin Elmer, Inc., Midrand, Johannesburg, South Africa) at wavelengths ranging from 200 to 1200 nm.
The ability of compound 2a to chelate Cu^2+ or Zn^2+ was assessed using a UV–vis spectrophotometric assay with a wavelength in the region of 200–1200 nm. The absorption spectrum of 2a (Figure 2) acquired in methanol at room temperature is characterized by four discernible absorption bands, around λ 300, 500, 690, and 1000 nm, respectively. These bands are reduced to two distinct bands of different intensities in the presence of either CuCl2 or ZnCl2. […] A bathochromic shift of the band found around 500 nm in the spectrum of 2a to around 580 nm in the presence of ZnCl2 occurred with no broadening. 2-Aminobenzamide is known to bind the Cu(II) ion through the amino-N and amido-O atoms.

[5] = system: A549 cells; experiment: LPS-induced ROS production in A549 cells (H2DCF-DA); format: cell-based, human; details: 10 μM compound, LPS 1 μg/mL, 24 h (Figure 9b)
Method: Mitochondrial ROS levels in Vero and A549 cell lines was measured using the 2′,7′-dichlorofluorescin diacetate (H2DCF-DA) (Sigma-Aldrich, St. Louis, MO, USA, Merck, Darmstadt, Germany), fluorescent probe. Cells (1 × 10^5) were seeded in 96 well plates and incubated overnight at 37 °C in 5% CO2. A minimum non-toxic concentration (10 μM) of compounds (2a and 3b) was added separately as treatment and further incubated for an hour, after which LPS (1 μg/mL) was added to induce the production of ROS. After 24 h of incubation, the media was aspirated, cells were rinsed with PBS, and followed by the addition of H2DCF-DA (10 μM) for 30 min in the dark. The absorbance of the fluorescence was measured using a microplate reader (VarioSkan Flash, Thermo Fisher Scientific, Finland) at 485 and 535 nm values of excitation and emission, respectively. Data was processed and analysed using ANOVA, which was followed by Duncan’s multiple comparison test.

T1 sequence (P22303 32-614): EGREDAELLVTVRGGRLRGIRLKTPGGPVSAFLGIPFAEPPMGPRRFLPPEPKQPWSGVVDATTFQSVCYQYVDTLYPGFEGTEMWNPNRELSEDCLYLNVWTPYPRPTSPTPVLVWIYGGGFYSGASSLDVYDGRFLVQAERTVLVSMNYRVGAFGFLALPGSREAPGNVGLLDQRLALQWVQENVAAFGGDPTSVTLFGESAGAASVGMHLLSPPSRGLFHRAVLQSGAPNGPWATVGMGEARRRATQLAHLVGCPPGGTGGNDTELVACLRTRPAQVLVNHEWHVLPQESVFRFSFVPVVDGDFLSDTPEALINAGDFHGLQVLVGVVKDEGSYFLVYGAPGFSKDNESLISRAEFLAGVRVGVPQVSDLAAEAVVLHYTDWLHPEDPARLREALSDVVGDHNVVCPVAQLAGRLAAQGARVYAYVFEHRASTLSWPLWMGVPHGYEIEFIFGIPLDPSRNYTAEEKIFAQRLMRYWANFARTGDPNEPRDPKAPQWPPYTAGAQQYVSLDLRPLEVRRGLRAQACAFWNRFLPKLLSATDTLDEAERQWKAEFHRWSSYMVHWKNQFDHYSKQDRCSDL
T2 sequence (P56817 46-501): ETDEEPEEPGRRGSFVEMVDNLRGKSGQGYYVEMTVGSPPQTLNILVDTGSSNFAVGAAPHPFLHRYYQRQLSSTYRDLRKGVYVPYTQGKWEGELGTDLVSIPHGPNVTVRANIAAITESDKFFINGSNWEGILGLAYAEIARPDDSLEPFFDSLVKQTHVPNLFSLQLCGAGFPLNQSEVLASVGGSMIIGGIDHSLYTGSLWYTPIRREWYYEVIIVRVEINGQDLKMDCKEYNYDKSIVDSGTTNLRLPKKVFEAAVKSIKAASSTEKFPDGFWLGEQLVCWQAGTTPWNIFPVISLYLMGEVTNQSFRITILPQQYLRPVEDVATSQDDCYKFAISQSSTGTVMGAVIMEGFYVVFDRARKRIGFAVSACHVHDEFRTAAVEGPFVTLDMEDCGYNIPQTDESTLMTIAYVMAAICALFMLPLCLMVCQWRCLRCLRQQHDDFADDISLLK

Question: What does the source list for `NC(=O)c1cc(/C=C/c2ccccc2)ccc1N` [Compound 2a, (E)-2-Amino-5-styrylbenzamide]?
Answer: mode of inhibition AChE [1]: non-competitive; Ki ([1]; read-out: Ki (Dixon plot) AChE): 1.2 µM; IC50 [2]: 15.8 ± 0.26 µM; IC50 [3]: 5.8 ± 0.32 µM; chelation of Cu2+ ([4]; 30 μM compound and 30 μM CuCl2 in methanol): selective for Cu (II) ion; chelation of Zn2+ ([4]; 30 μM compound and 30 μM ZnCl2 in methanol): relatively poor chelating ability; ROS reduction [5]: about 65%
